Legend:
[1] = system: E. coli; assay: Minimum Inhibitory Concentration (MIC) assay, broth microdilution and alamar blue; type: cell-based; settings: single-active controls; 24 hours incubation
[2] = system: X. alfalfae; assay: as above; type: cell-based; settings: single-active controls; 24 hours incubation
Description: Although not depicted in the figures, the antimicrobial properties of LSP materials and components were studied using standard microbiological technique to determine the Minimum Inhibitory Concentration (MIC). Samples were tested against Gram-negative Xanthomonas alfalfae subsp. citrumelonis strain F1 (ATCC 49120, a citrus canker surrogate), Gram-negative Pseudomonas syringae pv. syringae (ATCC 19310, causative agent of bacterial speck in Lilac, almond, apricots, peaches and wild beans among others) and Gram positive Clavibacter michiganensis subsp. michiganensis (ATCC 10202, causative agent of bacterial wilt and canker in Tomato sp). X. alfalfae and P. syringae were maintained with nutrient agar and broth while C. michiganensis was grown with brain heart infusion (BHI) media. All bacteria were grown at 26° C. in a shaking incubator (150 rpm).
Minimum Inhibitory Concentration (MIC) Assay
MIC was determined using two different methods: • a. Broth microdilution: Protocols as delineated by the Clinical and Laboratory Standards Institute (CLSI) were followed for conducting MIC studies to be in compliance with American Society of Microbiology guidelines. […] Since broth microdilution is based only on light absorbance, low concentration of bacteria can fall below the detection limit of the traditional optical density measurement. […]

| SMILES | MIC E. coli [1] | MIC X. alfalfae [2] |
| --- | --- | --- |
| O=S(=O)([O-])[O-].[Cu+2] [CuSO4] | 250-500 μg active/mL | 125-250 μg active/mL |
| CCCCCCCCCC[N+](C)(C)CCCCCCCCCC.[Cl-] [Quat, Didecyl Dimethyl Ammonium Chloride] | 2-4 μg active/mL | 2-4 μg active/mL |

Reference: patent publication US20230380419A1, “NANOCOMPOSITE COMPOSITIONS COMPRISING MULTI-VALENT METAL MATERIAL AND IMMOBILIZED QUAT MATERIAL, METHODS OF MAKING THE COMPOSITIONS AND METHODS OF USING THE COMPOSITIONS” (UNIVERSITY OF CENTRAL FLORIDA RESEARCH FOUNDATION, INC., priority 2015, published 2023)
